Patent US12427192B2, “Water soluble adjuvant and composition containing same” (Sumitomo Pharma Co., Ltd., priority 2019, dated 2025)

How the values were obtained:
[1] = test system: HLA-A*02:01 transgenic mouse; test: Test 13: in vivo adjuvant activity, cocktail vaccine h (emulsified composition 3), IFNγ ELISPOT; settings: added to cocktail vaccine h (emulsified composition 3); 0.04 nmol per body, twice; FIG. 14
Description: (§1) Evaluation of In Vivo Adjuvant Activity in HLA-A*02:01 Transgenic Mouse
The in vivo adjuvant activity of the compound of Example 1 was evaluated in the following procedure. To a cocktail vaccine (emulsified composition 3) comprising Compound of formula 4 prepared in Reference example 8 and Peptide SEQ ID No. 3 prepared in Reference example 3 (hereinafter, referred to as “cocktail vaccine h”) was added the compound prepared in Example 1 to prepare a vaccine. The vaccine was administered to a HLA-A*02:01 transgenic mouse, and the adjuvant activity of the vaccine was evaluated by the method of testing antigen-specific CTL induction.
For example, the above emulsified composition 3 was prepared as follows. 95.8% (w/w) of isopropyl myristate, 3% (w/w) of PEG-30 dipolyhydroxy stearate, and 1.2% (w/w) of polysorbate 80 were mixed to prepare an oil-phase mixture. The amount of the preparation was adjusted as appropriate. Compound of formula 4 and Peptide SEQ ID No. 3 were mixed with pH 2.5 buffer (10 mM tartaric acid, 10% trehalose) to adjust each concentration to 3 mg/mL and 2.25 mg/mL, respectively. The prepared peptide dilution was mixed with an equal volume of the oil-phase mixture to give an emulsified product, cocktail vaccine h. […] Then, after removal of the supernatant from the wells, stained spots on the ELISPOT plate were counted.

[2] = test system: HLA-A*02:01 transgenic mouse; test: Test 9: in vivo adjuvant activity, cocktail vaccine b, IFNγ ELISPOT; settings: added to cocktail vaccine b; Peptide SEQ ID No. 1 or SEQ ID No. 4; 0.4 nmol per body, twice; FIG. 6 and 7
Description: as §1
The in vivo adjuvant activity of the compounds prepared in Examples 8, 9, and 10 and the compound prepared in Reference example 12 was evaluated in the following procedure. To cocktail vaccine b comprising Compound of formula 4 prepared in Reference example 8 and Peptide SEQ ID No. 3 prepared in Reference example 3 with Montanide ISA51 VG was added the compound prepared in Example 8, 9, or 10, or the compound prepared in Reference example 12 to prepare each vaccine. The vaccine was administered to a HLA-A*02:01 transgenic mouse, and the adjuvant activity of each vaccine was evaluated by the method of testing antigen-specific CTL induction.
Specifically, Compound of formula 4 and Peptide SEQ ID No. 3 were dissolved in DMSO, and then diluted with water for injection to concentrations of Compound of formula 4 of 3 mg/mL and Peptide SEQ ID No. 3 of 2.25 mg/mL. The diluted peptide solution was mixed and emulsified with an equal volume of Montanide ISA 51 VG to prepare cocktail vaccine b. Cocktail vaccine b was injected to mice intradermally at the tail base area in an amount for administering 300 μg of Compound of formula 4 per body and 225 μg of Peptide SEQ ID No. 3 per body. Or, in the step of preparing cocktail vaccine b, the compound prepared in Example 8, 9, or 10, or the compound prepared in Reference example 12 was added to the diluted peptide solution to prepare a vaccine, and the prepared vaccine was injected to mice intradermally at the tail base area in an amount for administering 300 μg of Compound of formula 4 per body, 225 μg of Peptide SEQ ID No. 3 per body, and 0.4 nmol of the compound prepared in Example 8, 9, or 10, or the compound prepared in Reference example 12 per body. The administrations were done twice, which had one week interval. One week after the final administration, the mice were sacrificed with CO2 gas. Splenocytes were harvested from spleens removed from the mice. Like Test 4, Peptide (SEQ ID No. 1 or SEQ ID No. 4) was added to the splenocyte-containing ELISPOT plate at a final concentration of 10 μg/ml, and the plate was incubated overnight at 37° C. under an atmosphere of 5% CO2 to re-stimulate the peptide in vitro. Then, after removal of the supernatant from the wells, stained spots on the ELISPOT plate were counted.

SMILES | CTL counts responsive to Peptide SEQ ID No. 1 compared with adding no compound [1] | CTL counts responsive to the peptide compared with adding no compound [2]
CCCCCNc1nc(N)nc(C)c1Cc1ccc(CN(C)CCOCCOCCOCCOCCO)cc1OC [Example 1, 1-(4-{[2-amino-4-methyl-6-(pentylamino)pyrimidin-5-yl]methyl}-3-methoxyphenyl)-2-methyl-5,8,11,14-tetraoxa-2-azahexadecan-16-ol·trifluoroacetate] | more | –
CCCCCNc1nc(N)nc(C)c1Cc1ccc(CNC)cc1OC [Reference example 12, 5-({2-methoxy-4-[(methylamino)methyl]phenyl}methyl)-6-methyl-N^4-pentylpyrimidine-2,4-diamine, reference compound] | – | more
